Earlier results as cited in US20050019366A1, “Drug-coated stents and methods of use therefor” (priority 2002, published 2005).

System: restenosis after angioplasty
Settings: probucol 500 mg; twice daily for four weeks prior and six months after angioplasty

CC(C)(Sc1cc(C(C)(C)C)c(O)c(C(C)(C)C)c1)Sc1cc(C(C)(C)C)c(O)c(C(C)(C)C)c1 [Probucol, probucol]
reduction of the rate of restenosis after angioplasty: ~50%
